Laboratory results as given in US11623929B2, “Spirocyclic compounds” (C4 Therapeutics, Inc., priority 2018, dated 2023).

Target: h-Cereblon_DDB1 (hCereblon(M1-L442)_hDDB1(M1-H1140)) (Homo sapiens (Human), UniProt Q96SW2)
Assay: Fluorescence direct binding (tryptophan fluorescence titration)
Details: 20° C., excitation 280 nm, emission 340 nm, assay buffer 50 mM Hepes 7.4 200 mM NaCl, protein 5.0 E−8 M; read-out: Fluorescence h-Cereblon_DDB1 Mean Kd_EQ
Experimental: Fluorescence Direct Binding Protocol
Determination of the affinities of compounds to protein containing one or more tryptophan is measurable by monitoring the fluorescence emission in direct mode. The measurements depending on the protein available amounts are performed either manually in a cuvette on ISS-PC1 photon counting spectrofluorometer or automatically in well plates on a fluorescence plate reader device. Fluorescence titrations are performed at 20° C. in the chosen binding assay buffer by using a defined constant protein concentration against ligand concentration variations. Small aliquots of known ligand concentration solubilized in DMSO were added and the fluorescence, excited at 280 nm, was recorded at 340 nm. The fluorescence intensity was corrected for protein dilution and for the filter effect (Birdsall, B., et al. (1983). Anal. Biochem. 132, 353-361). The corrected fluorescence intensity was plotted against the ligand concentration and fitted using a four-parameter sigmoidal function, from which the equilibrium dissociation constant Kd was computed using the law of mass action assuming a 1:1 protein-ligand complex (Eftink, Methods Enzymol. 1997; 278:221-57).
The Fluorescence Direct Binding Protocol Process includes:
• 1) Optimization of measurement parameters to minimize protein consumption and to minimize the dilution effect and the DMSO content • 2) Titration measurements of the protein against ligand by at least 12 titration steps to obtain a good s-curve fit • 3) Repeat the same titration measurements with the ligand alone to enable correction • 4) Check the stability of the protein once by titration against DMSO alone • 5) Determination of the molar extinction coefficients of the ligand at 280 and 340 nm with help of an UV-spectrophotometer • 6) Use Excel template for the correction of the measured raw data • 7) Use GraphPad Prism software for the quadratic binding fit and the KD evaluation.

Sequence of h-Cereblon_DDB1 (hCereblon(M1-L442)_hDDB1(M1-H1140)) (Q96SW2 whole entry): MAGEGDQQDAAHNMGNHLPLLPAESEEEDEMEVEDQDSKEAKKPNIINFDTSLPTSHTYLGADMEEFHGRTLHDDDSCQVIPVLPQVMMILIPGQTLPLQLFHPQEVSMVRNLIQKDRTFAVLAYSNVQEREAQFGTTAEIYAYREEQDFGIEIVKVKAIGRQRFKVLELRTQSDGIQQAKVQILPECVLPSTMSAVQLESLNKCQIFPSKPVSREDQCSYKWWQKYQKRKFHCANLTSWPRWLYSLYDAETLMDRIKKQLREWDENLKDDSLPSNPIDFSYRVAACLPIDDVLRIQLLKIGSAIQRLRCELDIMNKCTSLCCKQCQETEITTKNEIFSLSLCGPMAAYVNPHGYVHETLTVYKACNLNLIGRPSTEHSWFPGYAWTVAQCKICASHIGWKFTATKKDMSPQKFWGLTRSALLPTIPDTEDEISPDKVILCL
Sequence of h-Cereblon_DDB1 (hCereblon(M1-L442)_hDDB1(M1-H1140)) (Q16531 whole entry partner): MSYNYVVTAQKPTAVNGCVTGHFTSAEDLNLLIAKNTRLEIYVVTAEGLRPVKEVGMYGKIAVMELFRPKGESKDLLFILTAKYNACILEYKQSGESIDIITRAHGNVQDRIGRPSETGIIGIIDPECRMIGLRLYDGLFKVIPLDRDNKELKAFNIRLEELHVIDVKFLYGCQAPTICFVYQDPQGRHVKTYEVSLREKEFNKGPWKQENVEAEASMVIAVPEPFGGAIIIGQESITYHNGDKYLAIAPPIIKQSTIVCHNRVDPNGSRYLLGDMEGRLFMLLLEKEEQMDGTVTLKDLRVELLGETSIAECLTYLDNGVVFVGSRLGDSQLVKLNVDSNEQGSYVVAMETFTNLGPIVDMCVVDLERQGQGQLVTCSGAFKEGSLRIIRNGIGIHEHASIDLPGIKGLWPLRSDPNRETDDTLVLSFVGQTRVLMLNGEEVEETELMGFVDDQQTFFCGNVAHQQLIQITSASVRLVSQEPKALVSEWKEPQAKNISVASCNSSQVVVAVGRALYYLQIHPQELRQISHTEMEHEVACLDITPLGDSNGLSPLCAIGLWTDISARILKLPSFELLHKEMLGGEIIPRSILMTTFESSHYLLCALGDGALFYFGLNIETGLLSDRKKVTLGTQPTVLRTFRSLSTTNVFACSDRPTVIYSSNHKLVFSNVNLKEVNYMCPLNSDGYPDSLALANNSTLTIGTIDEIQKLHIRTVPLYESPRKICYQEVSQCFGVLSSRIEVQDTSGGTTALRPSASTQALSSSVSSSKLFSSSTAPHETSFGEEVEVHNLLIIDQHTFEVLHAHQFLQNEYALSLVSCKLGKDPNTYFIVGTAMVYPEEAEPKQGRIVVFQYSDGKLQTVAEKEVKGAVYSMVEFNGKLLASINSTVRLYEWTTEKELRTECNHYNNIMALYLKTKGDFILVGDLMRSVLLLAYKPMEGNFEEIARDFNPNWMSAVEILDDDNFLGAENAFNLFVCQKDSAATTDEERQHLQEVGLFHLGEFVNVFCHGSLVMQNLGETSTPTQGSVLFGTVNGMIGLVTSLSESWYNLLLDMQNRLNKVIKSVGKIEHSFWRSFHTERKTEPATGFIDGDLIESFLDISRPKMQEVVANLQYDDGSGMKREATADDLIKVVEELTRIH

Row | SMILES | Kd [µM]
1 | O=C1NC(=O)C2(CCN(C(=O)[C@H]3CCCc4ccccc43)C2)N1 (stereo partly drawn) [Example 2, 7-((S)-1,2,3,4-Tetrahydronaphthalene-1-carbonyl)-1,3,7-triazaspiro[4.4]nonane-2,4-dione] | 0.003
2 | O=C1NC(=O)C2(CCN(c3nc4ccccc4s3)C2)N1 (stereo not drawn) [Example 3, 7-(Benzo[d]thiazol-2-yl)-1,3,7-triazaspiro[4.4]nonane-2,4-dione] | 0.031
3 | O=C1NC(=O)C2(CCN(C(=O)c3cnn4ccccc34)C2)N1 (stereo not drawn) [Example 4, 7-(Pyrazolo[1,5-a]pyridine-3-carbonyl)-1,3,7-triazaspiro[4.4]nonane-2,4-dione] | 0.037
4 | COC(=O)c1ccc(N2CCC3(C2)NC(=O)NC3=O)nc1 (stereo not drawn) [Example 5, Methyl 6-(2,4-dioxo-1,3,7-triazaspiro[4.4]nonan-7-yl)nicotinate] | 0.002
5 | O=C1NC(=O)C2(CCN(c3nc4ncccc4s3)C2)N1 (stereo not drawn) [Example 8, 7-(Thiazolo[4,5-b]pyridin-2-yl)-1,3,7-triazaspiro[4.4]nonane-2,4-dione] | 0.007
6 | COC(=O)c1ccc(N2CCC3(CC(=O)NC3=O)C2)nc1 (stereo not drawn) [Example 10, Methyl 6-(6,8-dioxo-2,7-diazaspiro[4.4]nonan-2-yl)nicotinate] | 0.01
7 | O=C1CC2(CCN(c3nc4ccccc4s3)C2)C(=O)N1 (stereo not drawn) [Example 11, 7-(Benzo[d]thiazol-2-yl)-2,7-diazaspiro[4.4]nonane-1,3-dione] | 0.018
8 | O=C1CC2(CCN(C(=O)c3cnn4ccccc34)C2)C(=O)N1 (stereo not drawn) [Example 12, 7-(Pyrazolo[1,5-a]pyridine-3-carbonyl)-2,7-diazaspiro[4.4]nonane-1,3-dione] | 0.006
9 | O=C1CC2(CCN(C(=O)c3ccccc3)C2)C(=O)N1 (stereo not drawn) [Example 13, 7-Benzoyl-2,7-diazaspiro[4.4]nonane-1,3-dione] | 0.015

Further lines, results first:

Row | Kd [µM] | SMILES
10 | 0.004 | O=C1NC(=O)C2(CCN(C(=O)c3ccccc3)C2)N1 (stereo not drawn) [Example 1, 7-Benzoyl-1,3,7-triazaspiro[4.4]nonane-2,4-dione]
11 | 0.01 | CC(=O)Nc1cccc(C(=O)N2CCC3(C2)NC(=O)NC3=O)c1 (stereo not drawn) [Example 6, N-(3-(2,4-Dioxo-1,3,7-triazaspiro[4.4]nonane-7-carbonyl)phenyl)acetamide]
12 | 0.161 | CC(=O)Nc1ccc(C(=O)N2CCC3(C2)NC(=O)NC3=O)cc1 (stereo not drawn) [Example 7, N-(4-(2,4-Dioxo-1,3,7-triazaspiro[4.4]nonane-7-carbonyl)phenyl)acetamide]
13 | 0.032 | O=C1NC(=O)C2(CCN(C(=O)c3ccc4scnc4c3)C2)N1 (stereo not drawn) [Example 9, 7-(Benzo[d]thiazole-5-carbonyl)-1,3,7-triazaspiro[4.4]nonane-2,4-dione]
14 | 0.026 | O=C1NC(=O)C2(CCN(C(=O)c3ccc4scnc4c3)C2)N1 (stereo not drawn) [Example 14, 7-(Benzo[d]thiazole-5-carbonyl)-1,3,7-triazaspiro[4.4]nonane-2,4-dione]
15 | 0.023 | O=C1NC(=O)C2(CCN(C(=O)c3ccc4scnc4c3)C2)N1 (stereo not drawn) [Example 15, 7-(Benzo[d]thiazole-5-carbonyl)-1,3,7-triazaspiro[4.4]nonane-2,4-dione]
